pIC50: −log10 of the molar value. Blank lines part the entries; values can stand above or below the compound they belong to. Activity calls are given as the source filed them. The rule behind the calls is not given here.
Columns and labels:
[1] = (§1) Cytotoxicity against human PANC1 cells assessed as reduction in cell viability after 24 hrs by MTT reduction assay; assay type: functional, cell-based; conditions: PANC-1, 24 h
PANC-1 [2] = assay: Reduction in AXL protein level in human PANC1 cells at 1.5 to 3 uM after 24 hrs by Western blot analysis; assay type: functional, cell-based
[3] = target: Tyrosine-protein kinase receptor UFO (Homo sapiens) (UniProt P30530); assay: Inhibition of AXL in human PANC1 cells assessed as reduction in HIF-1alpha expression at 1.5 to 3 uM after 24 hrs by Western blot analysis; assay type: cell-based; conditions: PANC-1
Sequence of Tyrosine-protein kinase receptor UFO (Homo sapiens) (P30530 whole entry): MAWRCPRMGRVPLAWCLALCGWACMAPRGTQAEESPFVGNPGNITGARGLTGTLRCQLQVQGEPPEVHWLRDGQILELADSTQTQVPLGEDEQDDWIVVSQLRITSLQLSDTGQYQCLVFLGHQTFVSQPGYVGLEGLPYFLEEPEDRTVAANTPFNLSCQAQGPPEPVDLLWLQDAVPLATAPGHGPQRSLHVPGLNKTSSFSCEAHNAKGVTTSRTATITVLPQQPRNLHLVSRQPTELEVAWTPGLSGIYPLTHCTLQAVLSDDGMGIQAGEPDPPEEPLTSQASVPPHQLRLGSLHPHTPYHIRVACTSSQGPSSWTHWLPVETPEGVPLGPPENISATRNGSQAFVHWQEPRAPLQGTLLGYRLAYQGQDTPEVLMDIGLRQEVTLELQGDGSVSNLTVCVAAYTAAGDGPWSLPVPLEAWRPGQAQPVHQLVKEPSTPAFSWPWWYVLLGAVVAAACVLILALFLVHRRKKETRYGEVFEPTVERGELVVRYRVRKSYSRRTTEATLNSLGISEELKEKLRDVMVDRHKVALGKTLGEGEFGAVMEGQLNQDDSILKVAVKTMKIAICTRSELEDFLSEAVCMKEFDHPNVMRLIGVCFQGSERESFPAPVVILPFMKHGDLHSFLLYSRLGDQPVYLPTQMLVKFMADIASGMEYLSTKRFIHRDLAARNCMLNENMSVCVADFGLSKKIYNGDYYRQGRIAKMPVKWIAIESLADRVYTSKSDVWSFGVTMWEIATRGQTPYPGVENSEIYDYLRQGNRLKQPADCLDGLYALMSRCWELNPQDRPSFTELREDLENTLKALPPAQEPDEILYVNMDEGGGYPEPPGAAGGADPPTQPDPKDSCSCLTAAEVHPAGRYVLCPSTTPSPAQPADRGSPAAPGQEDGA

[4] = Antiproliferative activity against human PANC1 cells assessed as reduction in colonies at 1.5 uM after 15 days by colony assay; assay type: functional, PANC-1; design: scale not given: the % may be the effect or the level left
[5] = Selectivity ratio of IC50 for human HaCaT cells to IC50 for human PANC1 cells; assay type: ADME, cell-based; conditions: HaCaT cells versus PANC1 cells, read-out: Ratio IC50
PANC-1 [6] = assay: Induction of apoptosis in human PANC1 cells assessed as increase in cleaved PARP-1 level at 1.5 to 3 uM after 24 hrs by Western blot analysis; assay type: functional, cell-based
[7] = Chemical reactivity under non-physiological condition at 25 mM using gluthatione as thiol nucleophile assessed as conjugate addition of GSH to compound after 24 hrs by 1H NMR spectroscopy; assay type: physicochemical; conditions: 25000 µM
PANC-1 [8] = assay: Induction of apoptosis in human PANC1 cells assessed as increase in BAX/BCL-2 ratio at 1.5 to 3 uM after 24 hrs by Western blot analysis; assay type: functional, cell-based
[9] = Antiproliferative activity against human PANC1 cells assessed as reduction in colonies after 15 days by colony assay; assay type: functional, cell-based; conditions: PANC-1, 360 h
PANC-1 [10] = assay: Induction of intracellular ROS production in human PANC1 cells at 25 to 100 uM after 1 hr using DCFH-DA by flow cytometry; assay type: functional, cell-based
PANC-1 [11] = assay: Reduction in c-Myc protein level in human PANC1 cells at 1.5 to 3 uM after 24 hrs by Western blot analysis; assay type: functional, cell-based
[12] = Antiproliferative activity against human PANC1 cells assessed as reduction in colonies at 0.75 uM after 15 days by colony assay; assay type: functional, PANC-1; design: scale not given: the % may be the effect or the level left
PANC-1 [13] = assay: Reduction in cyclin D1 protein level in human PANC1 cells at 1.5 to 3 uM after 24 hrs by Western blot analysis; assay type: functional, cell-based
PANC-1 [14] = assay: Cytotoxicity against human PANC1 cells assessed as reduction in cell viability at 10 to 100 uM after 24 hrs by MTT reduction assay in presence of GSH; assay type: functional, cell-based
PANC-1 [15] = assay: Reduction in p-RB at Ser795 protein level in human PANC1 cells at 1.5 to 3 uM after 24 hrs by Western blot analysis; assay type: functional, cell-based
[16] = target: Tyrosine-protein kinase receptor UFO (Homo sapiens) (UniProt P30530); assay: Inhibition of AXL in human PANC1 cells assessed as reduction in VEGF level at 1.5 to 3 uM after 24 hrs by Western blot analysis; assay type: cell-based; conditions: PANC-1
HaCaT = assay: Cytotoxicity against human HaCaT cells assessed as reduction in cell viability after 24 hrs by MTT reduction assay; assay type: cell-based
PANC-1 [17] = assay: Induction of apoptosis in human PANC1 cells assessed as reduction in pro-caspase-3 level at 1.5 to 3 uM after 24 hrs by Western blot analysis; assay type: functional, cell-based
[18] = target: Tyrosine-protein kinase receptor UFO (Homo sapiens) (UniProt P30530); assay: Inhibition of AXL in human PANC1 cells assessed as inhibition of ERK phosphorylation at Thr202/Tyr 204 at 1.5 to 3 uM after 24 hrs by Western blot analysis; assay type: cell-based; conditions: PANC-1
PANC-1 [19] = assay: as §1; assay type: functional, cell-based
[20] = Antiproliferative activity against human PANC1 cells assessed as reduction in colonies at 30 uM after 15 days by colony assay; assay type: functional, PANC-1; design: scale not given: the % may be the effect or the level left
PANC-1 [21] = assay: Reduction in cyclin D1 protein level in human PANC1 cells at 30 to 60 uM after 24 hrs by Western blot analysis; assay type: functional, cell-based
PANC-1 [22] = assay: Reduction in c-Myc protein level in human PANC1 cells at 30 to 60 uM after 24 hrs by Western blot analysis; assay type: functional, cell-based
PANC-1 [23] = assay: Induction of intracellular ROS production in human PANC1 cells at 1.5 to 3 uM after 1 hr using DCFH-DA by flow cytometry; assay type: functional, cell-based
PANC-1 [24] = assay: Cytoprotective activity in 1 hr GSH-pretreated human PANC1 cells assessed as increase in cell viability at 10 to 100 uM after 24 hrs by MTT reduction assay; assay type: functional, cell-based
[25] = Antiproliferative activity against human PANC1 cells assessed as reduction in colonies at 15 uM after 15 days by colony assay; assay type: functional, PANC-1; design: scale not given: the % may be the effect or the level left
[26] = target: Tyrosine-protein kinase receptor UFO (Homo sapiens) (UniProt P30530); assay: Effect on AXL in human PANC1 cells assessed as increase in p-ERK at Thr202/Tyr 204 protein level at 30 to 60 uM after 24 hrs by Western blot analysis; assay type: cell-based; conditions: PANC-1
PANC-1 [27] = assay: Reduction in p-RB at Ser795 protein level in human PANC1 cells at 30 to 60 uM after 24 hrs by Western blot analysis; assay type: functional, cell-based
PANC-1 [28] = assay: Reduction in AXL protein level in human PANC1 cells at 30 to 60 uM after 24 hrs by Western blot analysis; assay type: functional, cell-based
PANC-1 [29] = assay: Induction of apoptosis in human PANC1 cells assessed as increase in cleaved PARP-1 level at 30 to 60 uM after 24 hrs by Western blot analysis; assay type: functional, cell-based
PANC-1 [30] = assay: Induction of apoptosis in human PANC1 cells assessed as increase in BAX/BCL-2 ratio at 30 to 60 uM after 24 hrs by Western blot analysis; assay type: functional, cell-based
PANC-1 [31] = assay: Induction of apoptosis in human PANC1 cells assessed as reduction in pro-caspase-3 level at 30 to 60 uM after 24 hrs by Western blot analysis; assay type: functional, cell-based

Structure (SMILES): O=C1C=CCC(/C=C/c2ccccc2)N1C(=O)/C=C/c1ccc(O)c(O)c1 (configuration not stated)
pIC50 [1]: 5.24

inhibition [3]: Active
Activity [7]: Active
inhibition [16]: Active
inhibition [18]: Active
Structure (SMILES): COc1cc(/C=C/C(=O)N2C(=O)C=CCC2/C=C/c2ccccc2)cc(OC)c1OC (configuration not stated)
Activity (PANC-1 [2]): Active
pIC50 [1]: 5.57
Activity [4]: 90%
selectivity ratio [5]: 3.14
Activity (PANC-1 [6]): Active
Activity (PANC-1 [8]): Active
pIC50 [9]: 5.57
Activity (PANC-1 [10]): Active
Activity (PANC-1 [11]): Active
Activity [12]: 40%
Activity (PANC-1 [13]): Active
Activity (PANC-1 [14]): Dose-dependent effect
Activity (PANC-1 [15]): Active
pIC50 (HaCaT): 5.07
Activity (PANC-1 [17]): Active

Structure (SMILES): C/C=C/C(=O)N1C(=O)C=CCC1/C=C/c1ccccc1 (configuration not stated)
pIC50 [1]: 5.38

Activity [7]: Not Active
Structure (SMILES): O=C1C=CCC(/C=C/c2ccccc2)N1 (configuration not stated)
pIC50 [1]: < 4.00

Structure (SMILES): COc1cc(/C=C/C(=O)N2C(=O)C=CCC2/C=C/c2ccccc2)ccc1O (configuration not stated)
pIC50 [1]: 4.81

Structure (SMILES): COC(=O)N1C(=O)C=CCC1/C=C/c1ccccc1 (configuration not stated)
Activity (PANC-1 [19]): Dose-dependent effect
pIC50 [1]: 4.27

Structure (SMILES): C=CC(=O)N1C(=O)C=CCC1/C=C/c1ccccc1 (configuration not stated)
pIC50 [1]: 5.09

Activity [7]: Active
Activity [26]: Active
Structure (SMILES): O=C1C=CC[C@H](/C=C/c2ccccc2)O1 [GONIOTHALAMIN]
Activity [20]: 70%
Activity (PANC-1 [19]): Dose-dependent effect
pIC50 [1]: 4.19
Activity (PANC-1 [21]): Active
Activity (PANC-1 [22]): inactive
selectivity ratio [5]: 0.44
Activity (PANC-1 [23]): Active
Activity (PANC-1 [24]): Active
Activity [25]: 50%
pIC50 [9]: 4.19
Activity (PANC-1 [27]): Active
Activity (PANC-1 [28]): Active
Activity (PANC-1 [29]): Active
Activity (PANC-1 [30]): Active
pIC50 (HaCaT): 4.54
Activity (PANC-1 [31]): Active

Structure (SMILES): COc1cc(/C=C/C(=O)N2CCC=CC2=O)cc(OC)c1OC [PIPLARTINE]
pIC50 [1]: 5.49
selectivity ratio [5]: 5
pIC50 (HaCaT): 4.80

Structure (SMILES): O=C1C=CCC(/C=C/c2ccccc2)N1C(=O)CCc1ccc(O)c(O)c1 (configuration not stated)
pIC50 [1]: 5.17

Structure (SMILES): O=C1C=CCC(/C=C/c2ccccc2)N1C(=O)/C=C/c1ccccc1 (configuration not stated)
pIC50 [1]: 4.79

Structure (SMILES): CC(=O)N1C(=O)C=CCC1/C=C/c1ccccc1 (configuration not stated)
Activity (PANC-1 [19]): Dose-dependent effect
pIC50 [1]: 4.37

Reference: ChEMBL document CHEMBL3351649, “A new goniothalamin N-acylated aza-derivative strongly downregulates mediators of signaling transduction associated with pancreatic cancer aggressiveness” (Eur J Med Chem, 2014)
